Source: patent US9546176B2, “Small molecule bicyclic and tricyclic CFTR correctors” (DISCOVERYBIOMED, INC., priority 2012, dated 2017)
Read-outs that look alike come from different tables or passages of the source.

Biological target: T1, delF508-CFTR (Homo sapiens, UniProt P13569, DEL508-508)
T1 construct: endogenous in cells; host or cells: CFBE41o- human CF bronchial epithelial cells (delF508 homozygous)
Assay: SPQ halide-sensitive fluorescence dye assay for rescue of halide efflux (8-point concentration-response)
Assay type: cell-based
Experimental: The method of profiling can include detecting the rescue of halide efflux from a cell. The step of detecting a rescue of halide efflux from the cell can be monitored using the halide quenched dye 6-methoxy-N-(3-sulfopropyl)-quinolinium (SPQ, Molecular Probes Inc., Eugene, Oreg.). In this method, cells are treated with a compound as described herein for a period of time (e.g., 48 hours). The rescue or correction of halide efflux is then detected using the SPQ assay with the halide dye. […] Optionally, the halide efflux is chloride efflux. The method of screening can further comprise performing the method with multiple concentrations of the compound.
The compounds were initially subjected to the SPQ halide-sensitive fluorescence dye profiling assay for rescue or correction of membrane chloride ion permeability or transport with an 8-point concentration-response curve. The EC50 values for the compounds described herein were determined using SPQ (Table 1). The ΔSPQ value was calculated by determining the difference between the maximum and minimum SPQ values for the compounds.
To perform the SPQ high throughput screening assay, CFBE41o-cells were seeded into 96-well microtiter plates and were loaded with the fluorescent halide-sensitive dye, SPQ, in serum-containing culture medium. Certain wells were loaded with known positive control corrector molecules, including the industry standard Vertex 809 (VX-809; Vertex Pharmaceuticals, Cambridge, Mass.) at 3 μM, which is the maximally effective profiling dose for VX-809. The test compounds were loaded into wells and were tested in triplicate wells at a 10 μM dose and incubated over 48 hours at room temperature. During the 48 hour period, SPQ was absorbed. Plates were washed in a sodium chloride (NaCl) based Ringer and read once over two minutes to set the baseline SPQ fluorescence activity. Then, NaCl was replaced by sodium nitrate (NaNO3) based Ringer. The plates were read twice over four minutes. The primary high throughput screen (HTS) data were analyzed to detect any function of rescued delF508-CFTR under basal conditions. The plate was read up to two times to complete the SPQ HTS assay.

[1] = CFBE41o- cells, 48 h, read-out: SPQ EC50

T1 sequence (P13569 with tags, fused parts or gaps DEL508-508): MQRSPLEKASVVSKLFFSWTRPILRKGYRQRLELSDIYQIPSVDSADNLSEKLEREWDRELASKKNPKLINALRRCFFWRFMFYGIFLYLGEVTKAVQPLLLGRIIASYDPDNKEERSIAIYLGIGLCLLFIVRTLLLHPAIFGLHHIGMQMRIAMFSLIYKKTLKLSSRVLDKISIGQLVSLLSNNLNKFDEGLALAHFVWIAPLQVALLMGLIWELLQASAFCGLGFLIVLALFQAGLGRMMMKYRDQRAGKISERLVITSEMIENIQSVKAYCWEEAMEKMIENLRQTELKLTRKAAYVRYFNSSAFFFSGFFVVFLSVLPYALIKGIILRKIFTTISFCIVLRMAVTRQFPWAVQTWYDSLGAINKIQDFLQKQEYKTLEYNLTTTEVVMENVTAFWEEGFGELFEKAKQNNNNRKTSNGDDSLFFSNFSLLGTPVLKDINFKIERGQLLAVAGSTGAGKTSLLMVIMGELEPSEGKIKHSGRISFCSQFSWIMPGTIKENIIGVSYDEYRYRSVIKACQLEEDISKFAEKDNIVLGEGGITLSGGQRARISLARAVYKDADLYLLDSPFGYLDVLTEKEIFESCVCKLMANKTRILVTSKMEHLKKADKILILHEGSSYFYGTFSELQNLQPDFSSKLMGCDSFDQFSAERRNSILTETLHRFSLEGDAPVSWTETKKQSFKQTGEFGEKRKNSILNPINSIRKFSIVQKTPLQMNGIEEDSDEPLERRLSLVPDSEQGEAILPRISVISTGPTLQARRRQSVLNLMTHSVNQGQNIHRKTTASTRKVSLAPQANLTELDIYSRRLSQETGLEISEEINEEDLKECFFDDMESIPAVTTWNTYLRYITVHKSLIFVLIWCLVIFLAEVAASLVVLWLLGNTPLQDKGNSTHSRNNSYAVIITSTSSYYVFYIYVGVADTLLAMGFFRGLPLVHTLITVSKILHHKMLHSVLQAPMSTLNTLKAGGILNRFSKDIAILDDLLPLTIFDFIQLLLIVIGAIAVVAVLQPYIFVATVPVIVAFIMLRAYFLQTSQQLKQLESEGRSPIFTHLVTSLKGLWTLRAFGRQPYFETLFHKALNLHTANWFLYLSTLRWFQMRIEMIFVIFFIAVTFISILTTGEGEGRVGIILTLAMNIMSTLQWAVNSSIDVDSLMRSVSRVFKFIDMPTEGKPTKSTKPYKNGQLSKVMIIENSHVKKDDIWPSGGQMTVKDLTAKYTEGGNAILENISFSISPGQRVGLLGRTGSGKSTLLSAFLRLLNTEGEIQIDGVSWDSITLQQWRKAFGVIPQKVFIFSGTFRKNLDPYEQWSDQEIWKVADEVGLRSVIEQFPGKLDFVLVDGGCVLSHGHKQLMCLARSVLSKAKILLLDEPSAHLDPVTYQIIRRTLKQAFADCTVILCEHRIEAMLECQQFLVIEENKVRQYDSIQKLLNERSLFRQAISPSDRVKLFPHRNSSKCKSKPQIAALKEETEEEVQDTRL

Row | SMILES | EC50 [1] [µM] | SPQ EC50 (CFBE41o- cells, 48 h) | ΔSPQ (difference between maximum and minimum SPQ values) (CFBE41o- cells, 48 h) [RFU] | EC50 [µM] | potency and efficacy compared with VX-809 in SPQ assay (versus VX-809)
1 | COc1ccc(N2CCN(c3nc4c([nH]3)c(=O)n(C)c(=O)n4C)CC2)cc1 [Compound B-7.17] | 3.5 | – | – | – | –
2 | COCCCCN1CCN(c2nc3c(=O)n(C)c(=O)n(C)c3[nH]2)CC1 [Compound B-7.20] | – | No effect | – | – | –
3 | Cn1c(=O)c2nc(N3CCN(Cc4ccc(O)cc4)CC3)[nH]c2n(C)c1=O [Compound B-7] | – | No effect | – | – | –
4 | Cn1c(=O)c2nc(NCCO)[nH]c2n(C)c1=O [Compound B-8] | – | No effect | – | – | –
5 | CN(C)CCNc1nc2c(=O)n(C)c(=O)n(C)c2[nH]1 [Compound B-9] | – | No effect | – | – | –
6 | Cn1c(=O)c2[nH]c(NCCN)nc2n(C)c1=O [Compound B-11] | – | No effect | – | – | –
7 | Cn1c(=O)c2[nH]c(NCCSc3ncccn3)nc2n(C)c1=O [Compound B-12] | – | No effect | – | – | –
8 | Cn1c(=O)c2[nH]c(NCCNc3ccccn3)nc2n(C)c1=O [Compound B-13] | – | No effect | – | – | –
9 | Cn1c(=O)c2nc(N3CCN(CCO)CC3)[nH]c2n(C)c1=O [Compound B-14] | – | No effect | – | – | –
10 | Cn1c(=O)c2[nH]c(N3CCC(O)CC3)nc2n(C)c1=O [Compound B-15] | – | No effect | – | – | –
11 | C=CCn1c(=O)c2c(nc3n(CCC)c(C)cn23)n(C)c1=O [Compound I-1] | 17.8 | – | 3801 | – | –
12 | CCCCn1c(C)cn2c3c(=O)n(CCC)c(=O)n(C)c3nc12 [Compound I-2] | – | – | 3102 | > 30 | –
13 | C/C=C/Cn1c(=O)c2c(nc3n(C(C)CC)c(C)cn23)n(C)c1=O (stereo not drawn) [Compound I-3] | > 30 | – | 5305 | – | –
14 | C=CCn1c(=O)c2c(nc3n(C(C)CC)c(C)c(C)n23)n(C)c1=O (stereo not drawn) [Compound I-4] | 5.4 | – | 11108 | – | –
15 | Cc1cccc(-n2c(C)c(C)n3c4c(=O)n(C)c(=O)n(C)c4nc23)c1 [Compound I-5] | > 30 | – | 13531 | – | –
16 | CCn1c(=O)c2c(nc3n(-c4cccc(C)c4)c(C)c(C)n23)n(C)c1=O [Compound I-6] | 8.9 | – | 6023 | – | –
17 | CCn1c(=O)c2c(nc3n(-c4ccc(F)cc4)c(C)c(C)n23)n(C)c1=O [Compound I-7] | 10.1 | – | 5779 | – | –
18 | CCn1c(=O)c2c(nc3n(-c4ccc(C)cc4)c(C)c(C)n23)n(C)c1=O [Compound I-8] | 3.6 | – | 6975 | – | –
19 | CCn1c(=O)c2c(nc3n(-c4ccc(C)cc4)c(C)cn23)n(C)c1=O [Compound I-9] | 3.7 | – | 3793 | – | –
20 | CCn1c(=O)c2c(nc3n(-c4ccccc4)c(C)c(C)n23)n(C)c1=O [Compound I-10] | 4 | – | 4005 | – | –
21 | Cc1ccc(C)c(Cn2c(=O)c3c(nc4[nH]c(C)c(C)n43)n(C)c2=O)c1 [Compound I-11] | > 30 | – | 3705 | – | –
22 | CCCn1c(C)cn2c3c(=O)n(Cc4ccccc4)c(=O)n(C)c3nc12 [Compound I-12] | > 30 | – | 6259 | – | –
23 | Cc1cc(C)cc(-n2c(C)cn3c4c(=O)n(C)c(=O)n(C)c4nc23)c1 [Compound I-13] | 9 | – | 6131 | – | –

Row | SMILES | EC50 [1] [µM] | SPQ EC50 (CFBE41o- cells, 48 h) | ΔSPQ (difference between maximum and minimum SPQ values) (CFBE41o- cells, 48 h) [RFU] | EC50 [µM] | potency and efficacy compared with VX-809 in SPQ assay (versus VX-809)
24 | CCCn1c(=O)c2c(nc3n(-c4ccccc4C)c(C)cn23)n(C)c1=O [Compound I-14] | 18.9 | – | 8875 | – | –
25 | C=CCn1c(=O)c2c(nc3n(-c4cccc(C)c4)c(C)c(C)n23)n(C)c1=O [Compound I-15] | 6.1 | – | 5708 | – | –
26 | C=CCn1c(C)cn2c3c(=O)n(Cc4ccccc4C)c(=O)n(C)c3nc12 [Compound I-16] | 17.7 | – | 6996 | – | –
27 | CCCn1c(=O)c2c(nc3n(-c4ccccc4OC)c(C)c(C)n23)n(C)c1=O [Compound I-17] | 8.8 | – | 3733 | – | –
28 | CCCn1c(=O)c2c(nc3n(-c4ccccc4O)c(C)c(C)n23)n(C)c1=O [Compound I-18] | 7.1 | – | 5235 | – | –
29 | C/C=C/Cn1c(=O)c2c(nc3n(-c4ccccc4O)c(C)c(C)n23)n(C)c1=O [Compound I-19] | 3.2 | – | 2058 | – | –
30 | C=CCn1c(=O)c2c(nc3n(-c4ccccc4C)c(C)c(C)n23)n(C)c1=O [Compound I-20] | 3.8 | – | 9362 | – | –
31 | C=CCn1c(C)cn2c3c(=O)n(Cc4cccc(C)c4)c(=O)n(C)c3nc12 [Compound I-21] | 9.4 | – | 7073 | – | –
32 | C=CCn1c(C)cn2c3c(=O)n(Cc4ccc(F)cc4)c(=O)n(C)c3nc12 [Compound I-22] | 6.3 | – | 8993 | – | –
33 | CCn1c(=O)c2c(nc3n(-c4cccc(Cl)c4C)c(C)cn23)n(C)c1=O [Compound I-23] | 10.5 | – | 13290 | – | –
34 | CCCn1c(C)cn2c3c(=O)n(Cc4cccc(C)c4)c(=O)n(C)c3nc12 [Compound I-24] | 3.7 | – | 5227 | – | –
35 | CCn1c(=O)c2c(nc3n(-c4ccccc4OC)c(C)c(C)n23)n(C)c1=O [Compound I-25] | 10.4 | – | 6949 | – | –
36 | C=CCn1c(=O)c2c(nc3n(-c4ccc(OC)cc4)c(C)c(C)n23)n(C)c1=O [Compound I-26] | 3.1 | – | 4090 | – | –
37 | C/C=C/Cn1c(=O)c2c(nc3n(CCCC)c(C)cn23)n(C)c1=O [Compound I-27] | 18.4 | – | 8829 | – | –
38 | CCCCn1c(=O)c2c(nc3n(CCO)c(C)cn23)n(C)c1=O [Compound I-28] | 3 | – | 1344 | – | –
39 | CCn1c(=O)c2c(nc3n(-c4cccc(OC)c4)c(C)c(C)n23)n(C)c1=O [Compound I-29] | 9.6 | – | 10298 | – | –
40 | CCn1c(=O)c2c(nc3n(C(C)c4ccccc4)c(C)cn23)n(C)c1=O (stereo not drawn) [Compound I-30] | 22.6 | – | 18574 | – | –
41 | CCCn1c(=O)c2c(nc3n(CC(C)C)c(C)c(C)n23)n(C)c1=O [Compound I-31] | 12.7 | – | 300 | – | –
42 | CCCn1c(=O)c2c(nc3n(Cc4ccco4)c(C)c(C)n23)n(C)c1=O [Compound I-32] | 3.3 | – | 2989 | – | –
43 | CCc1ccc(-n2c(C)c(C)n3c4c(=O)n(CCCO)c(=O)n(C)c4nc23)cc1 [Compound I-33] | 18.9 | – | 16061 | – | –
44 | CCCn1c(=O)c2c(nc3n(Cc4ccccc4)c(C)c(C)n23)n(C)c1=O [Compound I-34] | 4.6 | – | 9486 | – | superior potency and efficacy to VX-809
45 | CCn1c(=O)c2c(nc3n(-c4cccc(OC)c4)c(C)cn23)n(C)c1=O [Compound I-35] | 18.1 | – | 13989 | – | –
